A value given as a limit tells only on which side of the number the result lay.

As usually defined, the melting point is the temperature, or range, at which the solid turns liquid. As usually defined, the Emax is the greatest response seen or fitted, relative to the assay's reference. As usually defined, the EC50 is the concentration needed to bring the measured effect to its halfway point.

One series addresses human mGluR5a receptor (Homo sapiens, UniProt P41594). Briefly: Cell-based functional assay (Ca2+ mobilization, FDSS), potentiation of glutamate EC20 response. The note with it: H10H cell line; for Emax: maximum % effect in the concentration-response curve as percent of maximal glutamate response, glutamate EC20; for EC50: potentiation in presence of glutamate EC20, concentration in mol/L. From the text:
Human mGluR5a cDNA in pCMV6-XL6 mammalian expression plasmid was purchased from OriGene Technologies, Inc. (catalogue number SC326357) and subcloned into pcDNA3.1(−). Human embryonic kidney (HEK)293A cells were then transfected with human mGluR5a pcDNA3.1(−) using LipofectAmine-2000 (Invitrogen) and monoclones were selected and tested for functional response using a Ca^2+ mobilization assay. Monoclones were named for the species (“H” for human) plus the location on the plate (e.g. “10H”).
HEK cells transfected with the human mGluR5a receptor (H10H or H12H cell line) were plated at 15,000 cells/well in clear-bottomed poly-D-lysinecoated assay plates (BD Falcon) in glutamate-glutamine-free growth medium and incubated overnight at 37° C. and 5% CO2. Cell-lines used were either the H10H or H12H cell-lines expressing the human mGluR5 receptor. The following day, the growth medium was removed and the cells were washed with assay buffer containing 1× Hank's balanced salt solution (Invitrogen, Carlsbad, Calif.), 20 mM HEPES, 2.5 mM probenecid, pH 7.4 and left with 20 μL of this reagent. Following this step, the cells were loaded with calcium indicator dye, fluo-4 AM, to a final concentration of 2 μM and incubated for 40-45 min at 37° C. The dye solution was removed and replaced with assay buffer. Cell plates were held for 10-15 min at room temperature and were then loaded into the Functional Drug Screening System 6000 (FDSS 6000, Hamamatsu, Japan).
After establishment of a fluorescence baseline for about 3 seconds, the compounds of the present invention were added to the cells, and the response in cells was measured. 2.3 minutes later an EC20 concentration of the mGluR5 receptor agonist glutamate was added to the cells, and the response of the cells was measured for about 1.7 minutes. All test compounds were dissolved and diluted to a concentration of 10 mM in 100% DMSO and then serially diluted into assay buffer for a 2× stock solution in 0.6% DMSO; stock compounds were then added to the assay for a final DMSO concentration of 0.3% after the first addition to the assay well. Calcium fluorescence measures were recorded as fold over basal fluorescence; raw data was then normalized to the maximal response to glutamate. Potentiation of the agonist response of the mGluR5 receptor in the present invention was observed as an increase in response to submaximal concentrations of glutamate in the presence of compound compared to the response to glutamate in the absence of compound.
The concentration-response curves of compounds of the present invention, obtained in the presence of EC20 of mGluR5 receptor agonist glutamate to determine positive allosteric modulation, were generated using Microsoft Excel with IDBS XLFit add-ins. The raw data file containing all time points was used as the data source in the analysis template. This was saved by the FDSS as a tab-delimited text file. Data were normalized using a static ratio function (F/F0) for each measurement of the total 350 values per well divided by each well's initial value. Data was then reduced as to peak amplitudes (Max Initial Min) using a time range that starts approximately 1 second after the glutamate EC20 addition and continues for approximately 40 seconds. This is sufficient time to capture the peak amplitude of the cellular Calcium response. Individual amplitudes were expressed as % EMax by multiplying each amplitude by 100 and then dividing the product by the mean of the amplitudes derived from the glutamate ECMax-treated wells. pEC50 values for test compounds were generated by fitting the normalized values versus the log of the test compound concentration (in mol/L) using a 4 parameter logistic equation where none of the parameters were fixed. Each of the three values collected at each concentration of test compound were weighted evenly. Individual values falling outside the 95% prediction limits of the curve fit were automatically excluded from the fit. […]
A general note: A change in cytosolic calcium serves as a functional read-out for many receptors and channels.

human mGluR5a receptor, sequence (P41594 21-1180 isoform P41594-2 limits assumed): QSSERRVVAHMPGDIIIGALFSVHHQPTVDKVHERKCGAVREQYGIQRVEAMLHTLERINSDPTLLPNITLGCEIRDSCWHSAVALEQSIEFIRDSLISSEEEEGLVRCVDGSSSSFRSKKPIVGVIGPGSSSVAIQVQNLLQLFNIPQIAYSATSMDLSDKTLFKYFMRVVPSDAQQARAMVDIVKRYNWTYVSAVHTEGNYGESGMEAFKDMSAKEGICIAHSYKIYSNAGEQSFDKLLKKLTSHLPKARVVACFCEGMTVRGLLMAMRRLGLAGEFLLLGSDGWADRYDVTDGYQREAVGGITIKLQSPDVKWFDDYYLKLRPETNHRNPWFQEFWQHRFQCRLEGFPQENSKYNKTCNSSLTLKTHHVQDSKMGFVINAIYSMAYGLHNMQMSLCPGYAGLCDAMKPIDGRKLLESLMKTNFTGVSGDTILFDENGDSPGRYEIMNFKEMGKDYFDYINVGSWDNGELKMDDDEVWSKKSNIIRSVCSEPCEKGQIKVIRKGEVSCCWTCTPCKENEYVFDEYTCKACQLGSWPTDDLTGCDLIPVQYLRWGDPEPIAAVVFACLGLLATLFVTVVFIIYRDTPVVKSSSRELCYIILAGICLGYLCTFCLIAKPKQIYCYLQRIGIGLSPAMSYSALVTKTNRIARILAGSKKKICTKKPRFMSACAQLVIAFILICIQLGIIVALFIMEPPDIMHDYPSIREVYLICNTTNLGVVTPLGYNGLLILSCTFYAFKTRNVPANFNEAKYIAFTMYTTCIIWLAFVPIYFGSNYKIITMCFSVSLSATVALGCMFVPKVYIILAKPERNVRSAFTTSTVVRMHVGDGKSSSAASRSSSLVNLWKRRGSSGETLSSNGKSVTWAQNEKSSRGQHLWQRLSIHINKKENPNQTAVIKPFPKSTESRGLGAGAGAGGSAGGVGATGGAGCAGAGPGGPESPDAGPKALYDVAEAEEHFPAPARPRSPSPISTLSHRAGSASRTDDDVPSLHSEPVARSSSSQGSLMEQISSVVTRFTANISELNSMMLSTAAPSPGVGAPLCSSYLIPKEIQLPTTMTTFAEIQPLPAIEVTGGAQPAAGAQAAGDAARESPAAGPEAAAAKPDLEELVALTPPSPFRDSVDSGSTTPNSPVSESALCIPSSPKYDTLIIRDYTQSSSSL

The molecule `CC1CN(c2ccc(F)cc2)C(=O)c2cc(OCc3ccccc3)nn21` (single isomer, unassigned) [Example B10] yielded a melting point of 134.8 °C. Besides, at human mGluR5a receptor, the Emax was 53% and the EC50 is 174 nM.

In the case of `CC1CN(Cc2ccccc2)C(=O)c2cc(OCc3ccccc3)nn21` (single isomer, unassigned) [Example B62], on human mGluR5a receptor, the Emax was 61% and the EC50 is 102 nM.

`O=C1c2cc(OCc3ccccc3)nn2CCN1c1ccc(F)cc1` [Example B1, 2-(benzyloxy)-5-(4-fluorophenyl)-6,7-dihydropyrazolo[1,5-a]pyrazin-4(5H)-one]: on human mGluR5a receptor, the Emax worked out at 54% and the EC50 is 182 nM.

As for `COc1nccc(N2CCn3nc(OCc4ccccc4)cc3C2=O)n1` [Example B2, 2-(benzyloxy)-5-(2-methoxypyrimidin-4-yl)-6,7-dihydropyrazolo[1,5-a]pyrazin-4(5H)-one], the melting point is 160.6 °C. Also, on human mGluR5a receptor, the Emax amounted to 57% and the EC50 is 661 nM.

Take `O=C1c2cc(OCc3ccccc3)nn2CCN1c1cccc(C2CC2)n1` [Example B3, 2-(benzyloxy)-5-(6-cyclopropylpyridin-2-yl)-6,7-dihydropyrazolo[1,5-a]pyrazin-4(5H)-one]: the melting point was 146.2 °C. For the same molecule, at human mGluR5a receptor, the Emax came out at 59% and the EC50 was 112 nM.

The molecule `O=C1c2cc(OCc3ccccc3F)nn2CCN1c1ccc(F)cc1` [Example B4, 2-[(2-fluorobenzyl)oxy]-5-(4-fluorophenyl)-6,7-dihydropyrazolo[1,5-a]pyrazin-4(5H)-one] registered a melting point of 119 °C. For the same molecule, on human mGluR5a receptor, the Emax turned out to be 63% and the EC50 was 141 nM.

In turn, `O=C1c2cc(OCc3ccccc3)nn2CCN1c1cccc(F)c1` [Example B5] showed a melting point of 131.5 °C. Moreover, at human mGluR5a receptor, the maximum response (Emax) worked out at 44% and the EC50 is 115 nM.

In the case of `O=C1c2cc(OCc3ccccc3)nn2CCN1c1ccccc1F` [Example B6], the melting point was found to be 151.9 °C. At human mGluR5a receptor, the Emax is 44% and the EC50 is 229 nM.

Turning to `Cc1cc(N2CCn3nc(OCc4ccccc4)cc3C2=O)ccc1F` [Example B7], the melting point amounted to 209.8 °C. For the same molecule, on human mGluR5a receptor, the Emax was determined as 47% and the EC50 is 102 nM.

`COc1cc(N2CCn3nc(OCc4ccccc4)cc3C2=O)ccc1F` [Example B8]: the melting point was 145.3 °C. In addition, at human mGluR5a receptor, the maximal effect (Emax) worked out at 45% and the EC50 was 132 nM.

The molecule `C[C@@H]1Cn2nc(OCc3ccccc3)cc2C(=O)N1c1ccc(F)cc1` [Example B9] displayed a melting point of 229.9 °C. Also, on human mGluR5a receptor, the Emax was 52% and the EC50 is 87.1 nM.

`O=C1c2cc(OCc3ccccc3)nn2CCN1c1ccccn1` [Example B11] displayed a melting point of 153.5 °C. For the same molecule, at human mGluR5a receptor, the maximal effect (Emax) came out at 25% and the EC50 is above 10000 nM.

As to `O=C1c2cc(OCc3ccccc3)nn2CCN1c1cccnc1` [Example B12], the melting point turned out to be 147.8 °C. For the same molecule, on human mGluR5a receptor, the Emax stood at 17% and the EC50 was above 30200 nM.

`O=C1c2cc(OCc3ccccc3)nn2CCN1c1ccncc1` [Example B13] came in with a melting point of 167.2 °C. Moreover, at human mGluR5a receptor, the Emax is 37% and the EC50 was above 10000 nM.

With `Cc1cccc(N2CCn3nc(OCc4ccccc4)cc3C2=O)n1` [Example B14], the melting point was 152.1 °C. Besides, at human mGluR5a receptor, the Emax amounted to 53% and the EC50 was 174 nM.

The molecule `O=C1c2cc(OCc3ccccc3)nn2CCN1c1ccc(F)cn1` [Example B16] registered a melting point of 145.5 °C. At human mGluR5a receptor, the Emax amounted to 45% and the EC50 is above 10000 nM.

As to `Cc1cc(N2CCn3nc(OCc4ccccc4)cc3C2=O)ncc1F` [Example B18], the melting point is 145.2 °C. Besides, on human mGluR5a receptor, the Emax is 45% and the EC50 is 339 nM.

In turn, `Cc1nccc(N2CCn3nc(OCc4ccccc4)cc3C2=O)n1` [Example B19] gave a melting point of 182.8 °C. For the same molecule, on human mGluR5a receptor, the Emax came to 47% and the EC50 was 871 nM.

Molecule `COc1nc(N2CCn3nc(OCc4ccccc4)cc3C2=O)ncc1F` [Example B21] registered a melting point of 223 °C. In addition, on human mGluR5a receptor, the maximal response (Emax) worked out at 55% and the EC50 is 251 nM.

Consider `Cc1cncc(N2CCn3nc(OCc4ccccc4)cc3C2=O)n1` [Example B22], for which the melting point came to 215.2 °C. Moreover, on human mGluR5a receptor, the Emax was 43% and the EC50 is 708 nM.

Consider `N#Cc1cccc(COc2cc3n(n2)CCN(c2ccc(F)cc2)C3=O)c1` [Example B27], for which the melting point was determined as 147.9 °C. Moreover, on human mGluR5a receptor, the Emax is 31% and the EC50 was 148 nM.

`COc1ccccc1COc1cc2n(n1)CCN(c1ccc(F)cc1)C2=O` [Example B29]: the melting point is 140.2 °C. In addition, at human mGluR5a receptor, the Emax amounted to 36% and the EC50 was 1200 nM.

On to `COc1ccc(COc2cc3n(n2)CCN(c2ccc(F)cc2)C3=O)cc1` [Example B30], for which the melting point is 164.6 °C. Besides, on human mGluR5a receptor, the Emax is 28% and the EC50 was above 30200 nM.

On to `O=C1c2cc(OCc3ccccn3)nn2CCN1c1ccc(F)cc1` [Example B34], for which, at human mGluR5a receptor, the Emax was 23% and the EC50 is above 30200 nM.

For the molecule `O=C1c2cc(OCc3cccnc3)nn2CCN1c1ccc(F)cc1` [Example B35], on human mGluR5a receptor, the Emax amounted to 12% and the EC50 was above 30200 nM.

On to `O=C1c2cc(OCc3ccccc3)nn2CCN1CC1CC1` [Example B44, 2-(benzyloxy)-5-(cyclopropylmethyl)-6,7-dihydropyrazolo[1,5-a]pyrazin-4(5H)-one], for which, at human mGluR5a receptor, the Emax stood at 26% and the EC50 is at least 30200 nM.

In the case of `CC1(CN2CCn3nc(OCc4ccccc4)cc3C2=O)COC1` [Example B55], the Emax on human mGluR5a receptor was found to be 37%.

Take `O=C1c2cc(OCc3ccccc3)nn2CCN1CC1CCC1` [Example B56]: on human mGluR5a receptor, the maximal response (Emax) came to 52% and the EC50 is 1070 nM.

On to `O=C1c2cc(OCc3ccccc3)nn2CCCN1Cc1ccccc1` [Example B58, 5-benzyl-2-(benzyloxy)-5,6,7,8-tetrahydro-4H-pyrazolo[1,5-a][1,4]diazepin-4-one], for which, at human mGluR5a receptor, the Emax was 57% and the EC50 is 380 nM.

Take `C[C@@H]1Cn2nc(OCc3ccccc3)cc2C(=O)N1Cc1ccccc1` [Example B61]: on human mGluR5a receptor, the Emax was found to be 59% and the EC50 is 257 nM.

Take `COc1cc(F)cc(CN2CCn3nc(OCc4ccccc4)cc3C2=O)c1` [Example B63]: on human mGluR5a receptor, the Emax was 62% and the EC50 was 646 nM.

On to `COc1cccc(CN2CCn3nc(OCc4ccccc4)cc3C2=O)c1F` [Example B66], for which, at human mGluR5a receptor, the maximal response (Emax) was found to be 63% and the EC50 was 363 nM.

Regarding `COc1cccc(CN2CCn3nc(OCc4ccccc4)cc3C2=O)c1Cl` [Example B67], at human mGluR5a receptor, the maximal response (Emax) was 63% and the concentration for a half-maximal effect (EC50) was 115 nM.

Regarding `COc1ccc(F)cc1CN1CCn2nc(OCc3ccccc3)cc2C1=O` [Example B68], at human mGluR5a receptor, the Emax was determined as 58% and the half-maximal effective concentration (EC50) is 178 nM.

Turning to `O=C1c2cc(OCc3ccccc3)nn2CCN1CC1CC(F)(F)C1` [Example B71], on human mGluR5a receptor, the Emax came to 59% and the EC50 was 692 nM.

For the molecule `O=C1c2cc(OCc3ccccc3)nn2CCCN1CC1CC1(F)F` (centres unmarked) [Example B73], at human mGluR5a receptor, the Emax stood at 20% and the concentration for a half-maximal effect (EC50) is above 30200 nM.

Values taken from patent publication US8901125B2, “Substituted bicyclic alkoxy pyrazole analogs as allosteric modulators of mGluR5 receptors” (Vanderbilt University, priority 2012, dated 2014).
